Laboratory results from patent US20250222146A1, “Radiopharmaceuticals Targeting Somatostatin Receptor 2 and Uses Thereof” (RayzeBio, Inc., priority 2023, published 2025).
Numbered stars: 1 amine (or outer) side, 2 acyl side, 3 side chain; on linkers, the order of the positions; unused ones are H or OH. Square brackets hold non-standard residues; d marks the D form. Side chains are listed from the residue outwards. Peptide text beside a SMILES is read from it. * marks the point of attachment. X12 = O=C1CN2CCN3CCN(CC(=O)N4CCC(CC(=O)*)CC4)CCN(CC2)CC(=O)[O][Lu]([O]1)[O]C(=O)C3; X24 = O=C1CN2CCN3CCN(CC(=O)N4CC(CC(=O)*)C4)CCN(CC2)CC(=O)[O][Lu]([O]1)[O]C(=O)C3; X9 = O=C1CN2CCN3CCN(CC(=O)N4CC(C(=O)*)C4)CCN(CC2)CC(=O)[O][Lu]([O]1)[O]C(=O)C3; DOTA(Lu) = O=C1CN2CCN3CCN(CC(=O)*)CCN(CC2)CC(=O)[O][Lu]([O]1)[O]C(=O)C3; Ala(piperidin-4-yl) = O=C([C@H](CC1CCN([*:3])CC1)N[*:1])[*:2]; dTrp(βS-Me) = C[C@@H](c1c[nH]c2ccccc12)[C@@H](N)C(=O)O; Ala(piperazin-1-yl) = N[C@@H](CN1CCNCC1)C(=O)O; NMehLys = CN[C@@H](CCCCCN)C(=O)O; Trx = NC[C@H]1CC[C@H](C(=O)O)CC1; NMeK = CN[C@@H](CCCCN)C(=O)O; Inp = O=C(O)C1CCNCC1; Ava = NCCCCC(=O)O

target: SSTR2 (Homo sapiens, UniProt P30874); experiment: SSTR binding affinity by radioligand binding competition assay ([125I]-Tyr11-Somatostatin, membrane extracts); conditions: radioligand competition, [125I]-Tyr11-Somatostatin 0.1 nM, membrane extracts; Ki from IC50 by Cheng Prusoff; read-out: SSTR2 Ki
Sequence (P30874 whole entry): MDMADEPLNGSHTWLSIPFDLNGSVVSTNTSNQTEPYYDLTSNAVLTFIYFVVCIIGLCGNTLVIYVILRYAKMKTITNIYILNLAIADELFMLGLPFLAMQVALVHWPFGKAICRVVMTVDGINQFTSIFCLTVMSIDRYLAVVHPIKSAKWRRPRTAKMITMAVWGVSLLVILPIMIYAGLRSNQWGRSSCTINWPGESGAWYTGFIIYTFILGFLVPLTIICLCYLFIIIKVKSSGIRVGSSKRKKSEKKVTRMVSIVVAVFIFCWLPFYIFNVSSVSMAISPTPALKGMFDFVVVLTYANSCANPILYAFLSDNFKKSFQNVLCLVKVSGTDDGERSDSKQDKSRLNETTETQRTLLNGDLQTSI

With `C[C@@H](O)[C@@H]1NC(=O)[C@H](CC2CCNCC2)NC(=O)[C@@H]([C@@H](C)c2c[nH]c3ccccc23)NC(=O)[C@H](Cc2ccc(O)cc2)NC(=O)[C@H](CCCCNC(=O)CCCCNC(=O)CN2CCN3CCN4CCN(CC2)CC(=O)[O][Lu]([O]C(=O)C3)[O]C(=O)C4)N(C)C(=O)[C@H](Cc2ccccc2)NC1=O` [RB-0006406] (cyclo(F[NMeK]([Ava-DOTA(Lu)])Y[dTrp(βS-Me)][Ala(piperidin-4-yl)]T)) as the compound, how does the Ki read?
The Ki was 1 to 3.33 nM.

For `C[C@@H](O)[C@@H]1NC(=O)[C@H](CN2CCNCC2)NC(=O)[C@@H]([C@@H](C)c2c[nH]c3ccccc23)NC(=O)[C@H](Cc2ccc(O)cc2)NC(=O)[C@H](CCCCNC(=O)CC[C@@H]2C(=O)[O][Ga]3[O]C(=O)CN4CCN(CCN2CC4)CC(=O)[O]3)N(C)C(=O)[C@H](Cc2ccccc2)NC1=O` [RB-0006414], which Ki is on record?
Its Ki is 1 to 3.33 nM.

How did the Ki turn out when `C[C@@H](O)[C@@H]1NC(=O)[C@H](CN2CCNCC2)NC(=O)[C@@H]([C@@H](C)c2c[nH]c3ccccc23)NC(=O)[C@H](Cc2ccc(O)cc2)NC(=O)[C@H](CCCCNC(=O)[C@H]2CC[C@H](CNC(=O)CN3CCN4CCN5CCN(CC3)CC(=O)[O][Lu]([O]C(=O)C4)[O]C(=O)C5)CC2)N(C)C(=O)[C@H](Cc2ccccc2)NC1=O` [RB-0006420] (cyclo(F[NMeK]([Trx-DOTA(Lu)])Y[dTrp(βS-Me)][Ala(piperazin-1-yl)]T)) was run?
The Ki was 1 to 3.33 nM.

For `C[C@@H](O)[C@@H]1NC(=O)[C@H](CC2CCNCC2)NC(=O)[C@@H]([C@@H](C)c2c[nH]c3ccccc23)NC(=O)[C@H](Cc2ccc(O)cc2)NC(=O)[C@H](CCCCCNC(=O)CN2CCN3CCN4CCN(CC2)CC(=O)[O][Lu]([O]C(=O)C3)[O]C(=O)C4)N(C)C(=O)[C@H](Cc2ccccc2)NC1=O` [RB-0006449] (cyclo(F[NMehLys](DOTA(Lu))Y[dTrp(βS-Me)][Ala(piperidin-4-yl)]T)), which Ki is on record?
Its Ki is less than 1 nM.

For `C[C@@H](O)[C@@H]1NC(=O)[C@H](CC2CCNCC2)NC(=O)[C@@H]([C@@H](C)c2c[nH]c3ccccc23)NC(=O)[C@H](Cc2ccc(O)cc2)NC(=O)[C@H](CCCCNC(=O)C2CCN(C(=O)CN3CCN4CCN5CCN(CC3)CC(=O)[O][Lu]([O]C(=O)C5)[O]C(=O)C4)CC2)N(C)C(=O)[C@H](Cc2ccccc2)NC1=O` [RB-0006452] (cyclo(F[NMeK]([Inp-DOTA(Lu)])Y[dTrp(βS-Me)][Ala(piperidin-4-yl)]T)), which Ki is on record?
The Ki was 1 to 3.33 nM.

`C[C@@H](O)[C@@H]1NC(=O)[C@H](CC2CCNCC2)NC(=O)[C@@H]([C@@H](C)c2c[nH]c3ccccc23)NC(=O)[C@H](Cc2ccc(O)cc2)NC(=O)[C@H](CCCCNC(=O)C2CN(C(=O)CN3CCN4CCN5CCN(CC3)CC(=O)[O][Lu]([O]C(=O)C5)[O]C(=O)C4)C2)N(C)C(=O)[C@H](Cc2ccccc2)NC1=O` [RB-0006455] (cyclo(F[NMeK](X9)Y[dTrp(βS-Me)][Ala(piperidin-4-yl)]T)) was tested. Which Ki did it give?
Its Ki is 1 to 3.33 nM.

With `C[C@@H](O)[C@@H]1NC(=O)[C@H](CC2CCNCC2)NC(=O)[C@@H]([C@@H](C)c2c[nH]c3ccccc23)NC(=O)[C@H](Cc2ccc(O)cc2)NC(=O)[C@H](CCCCNC(=O)CC2CCN(C(=O)CN3CCN4CCN5CCN(CC3)CC(=O)[O][Lu]([O]C(=O)C5)[O]C(=O)C4)CC2)N(C)C(=O)[C@H](Cc2ccccc2)NC1=O` [RB-0006458] (cyclo(F[NMeK](X12)Y[dTrp(βS-Me)][Ala(piperidin-4-yl)]T)) as the compound, how does the Ki read?
The Ki was 3.33 to 10 nM.

How did the Ki turn out when `C[C@@H](O)[C@@H]1NC(=O)[C@H](CC2CCNCC2)NC(=O)[C@@H]([C@@H](C)c2c[nH]c3ccccc23)NC(=O)[C@H](Cc2ccc(O)cc2)NC(=O)[C@H](CCCCNC(=O)CC2CN(C(=O)CN3CCN4CCN5CCN(CC3)CC(=O)[O][Lu]([O]C(=O)C5)[O]C(=O)C4)C2)N(C)C(=O)[C@H](Cc2ccccc2)NC1=O` [RB-0006461] (cyclo(F[NMeK](X24)Y[dTrp(βS-Me)][Ala(piperidin-4-yl)]T)) was run?
Its Ki is 3.33 to 10 nM.
